Experiment: UV absorption in ethanol
Type: physicochemical
Conditions: for E1% / εmax: at λmax

Compound	λmax	E1%	εmax	E1% (listed as Example 2)	εmax (listed as Example 2)
COC(=O)C(=Cc1ccc(OC[Si](C)(C)C)cc1)C(=O)OC [Example 1, dimethyl 2-(4-trimethylsilanylmethoxy)benzylidenemalonate]	λmax = 317 nm,	E1% = 840.	εmax = 27 085,	E1% = 820.	εmax = 26 440,
CCOC(=O)C(=Cc1ccc(OC[Si](C)(C)C)cc1)C(=O)OCC [Example 3, diethyl 2-(4-trimethylsilanylmethoxy)benzylidenemalonate]	λmax = 316 nm,	E1% = 750.	εmax = 26 290,		
CC(C)COC(=O)C(=Cc1ccc(OC[Si](C)(C)C)cc1)C(=O)OCC(C)C [Example 4, diisobutyl 2-(4-trimethylsilanylmethoxy)benzylidenemalonate]	λmax = 316 nm,	E1% = 663.	εmax = 26 960,		
CC(C)(C)COC(=O)C(=Cc1ccc(OC[Si](C)(C)C)cc1)C(=O)OCC(C)(C)C [Example 5, dineopentyl 2-(4-trimethylsilanylmethoxy)benzylidenemalonate]	λmax = 317 nm,	E1% = 592.	εmax = 25 730,		
CC1(C)OC(=O)C(=Cc2ccc(OC[Si](C)(C)C)cc2)C(=O)O1 [Example 6, 2,2-dimethyl-5-[4-(trimethylsilanylmethoxy)benzylidene]-1,3-dioxane-4,6-dione]	λmax = 370 nm,	E1% = 756.	εmax = 25 230,		
CCCCC(CC)COC(=O)C(=Cc1ccc(OC[Si](C)(C)C)c(OC)c1)C(=O)OCC(CC)CCCC (centres unmarked) [Example 7, bis(2-ethylhexyl) 2-[3-methoxy-4-(trimethylsilanylmethoxy)benzylidene]malonate]	λmax = 331 nm,	E1% = 331.	εmax = 18 170,		
COC(=O)C(=Cc1ccc(OC[Si](C)(C)COc2ccc(C=C(C(=O)OC)C(=O)OC)cc2)cc1)C(=O)OC [Example 9, dimethyl 2-(4-{[({4-[3-methoxy-2-(methoxycarbonyl)-3-oxoprop-1-enyl]phenoxy}methyl)(dimethyl)silyl]methoxy}benzylidene)malonate]	λmax = 316 nm,	E1% = 903.	εmax = 50 270,		
C[Si](C)(C)COc1ccc(C=C(C(N)=O)C(N)=O)cc1 [Example 10, 2-[4-(trimethylsilanylmethoxy)benzylidene]malonamide]	λmax = 310 nm,	E1% = 696.	εmax = 20 350,		
CC(C)OC(=O)/C=C/c1ccc(OC[Si](C)(C)C)cc1 [Example 11, isopropyl 2-(4-trimethylsilanylmethoxy)cinnamate]	λmax = 310 nm,	E1% = 711.	εmax = 20 800,		
COc1ccc(C=C(C(=O)OC[Si](C)(C)C)C(=O)OC[Si](C)(C)C)cc1 [Example 13, di(methyltrimethylsilanyl) 2-(4-methoxybenzylidene)malonate]	λmax = 313 nm,	E1% = 653.	εmax = 25 770,		

Source: patent publication US7354571B2, “Photoprotective compositions comprising methyltrialkylsilanes containing a cinnamate, cinnamamide, benzalmalonamide or benzalmalonate function” (L'Oreal, priority 2003, dated 2008)
